Measured values as given in patent publication US11140318B2, “Laser endoscope device” (Mie University, priority 2016, dated 2021).
Where two headings read alike, the source gives them in different places.

Assays:
cancer tissue = conditions: mouse, in vivo
Text: (§1) The finding 3 will be described with reference to a case where a cell morphology in a living body is imaged under the multiphoton laser microscope (FV1000MPE manufactured by Olympus Corporation) while changing the focal point position and a plurality of captured images are cut in a predetermined position to create a cross-sectional image (tomographic image). A laboratory mouse was used as the living body.
(§2) As the stain for staining the cell group, both the stain containing curcumin and the stain containing Acid Red (red #106) were used. The staining period was set at 5 minutes. The staining period is the period for which the stain is caused to be in contact with the cell group and the dye of the stain is allowed to penetrate into the cells themselves or the gaps between the cells.

healthy mucosa tissue = conditions: mouse, in vivo
Text: as §1, §2

Row | Compound | depth to which the tissue is stained (cancer tissue) | depth to which the tissue is stained (healthy mucosa tissue) | depth to which the tissue is stained (cancer tissue; 5 min) | depth to which the tissue is stained (healthy mucosa tissue; 5 min)
1 | CCN(CC)c1ccc2c(-c3ccc(S(=O)(=O)[O-])cc3S(=O)(=O)[O-])c3ccc(=[N+](CC)CC)cc-3oc2c1.[Na+] [Acid Red dye, Acid Red] | about 40 μm | about 70 μm |  | 
2 | COc1cc(/C=C/C(=O)CC(=O)/C=C/c2ccc(O)c(OC)c2)ccc1O [curcumin dye, curcumin] |  |  | about 40 μm | about 20 μm
